Where two headings read alike, the source gives them in different places.
Legend:
hCA IX [1] = conditions: stopped-flow CO2 hydrase assay, mean of three assays; cited from earlier work
hCA I = conditions: stopped-flow CO2 hydrase assay, mean of three assays; cited from earlier work
hCA IV [2] = conditions: stopped-flow CO2 hydrase assay, mean of three assays; cited from earlier work
hCA II = conditions: stopped-flow CO2 hydrase assay, mean of three assays; cited from earlier work
hCA XII = conditions: stopped-flow CO2 hydrase assay, mean of three assays; cited from earlier work
HCT-116 [3] = assay: Cell cycle analysis by DNA flow cytometry, HCT-116; type: cell-based, human; conditions: HCT-116, 24 h at IC50 concentration
Experimental: (§1) Following treatment, cells were washed twice with ice-cold phosphate-buffered saline (PBS). Subsequently, the treated cells were harvested through centrifugation, fixed in ice-cold 70% (v/v) ethanol, washed with PBS, re-suspended in 100 μg/mL RNase, stained with 40 μg/mL propidium iodide (PI), and subjected to flow cytometry analysis using FACS Calibur (Becton Dickinson, Franklin Lakes, NJ, USA). The cell cycle distributions were calculated using CellQuest software 5.1 (Becton Dickinson).

A549 [4] = assay: Cell cycle analysis by DNA flow cytometry, A549; type: cell-based, human; conditions: A549, 24 h at IC50 concentration
Experimental: as §1

HCT-116 [5] = assay: MTT antiproliferative assay, HCT-116 (normoxia and CoCl2-induced hypoxia); type: cell-based, human; conditions: for IC50: Homo sapiens, MTT, 72 h
Experimental: (§2) These cell lines were cultured as monolayers in Dulbecco’s Modified Eagle’s Medium (DMEM) supplemented with 10% FBS, 2 mM l-glutamine, 100 U/mL penicillin, and 100 µg/mL streptomycin sulfate. […] The cells were sub-cultured using trypsin/EDTA solution, counted with a hemocytometer, and plated on 96-well plates (5000 cells/well), allowing them to form a semi-confluent monolayer overnight. […] DMSO (100 µL/well) was then added to dissolve the formazan crystals with shaking for 10 min, after which the absorb absorbance was read at 590 nm against no-cell blanks using a FLuo Star Optima microplate reader (BMG technologies, Ortenberg, Germany). Cell proliferation was calculated by comparing the OD values of the DMSO control wells with those of the samples, represented as % proliferation relative to the control.

A549 [6] = assay: MTT antiproliferative assay, A549; type: cell-based; conditions: Homo sapiens, normoxic conditions, 72 h
Experimental: The human triple-negative breast cancer cell line (MDA-MB-231), colon cancer cell line (HCT-116), and lung cancer cell line (A549) used in this study were obtained from the American Type Culture Collection (ATCC). These cell lines were cultured as monolayers in Dulbecco’s Modified Eagle’s Medium (DMEM) supplemented with 10% FBS, 2 mM l-glutamine, 100 U/mL penicillin, and 100 µg/mL streptomycin sulfate. […] The cells were sub-cultured using trypsin/EDTA solution, counted with a hemocytometer, and plated on 96-well plates (5000 cells/well), allowing them to form a semi-confluent monolayer overnight. […]. DMSO (100 µL/well) was then added to dissolve the formazan crystals with shaking for 10 min, after which the absorb absorbance was read at 590 nm against no-cell blanks using a FLuo Star Optima microplate reader (BMG technologies, Ortenberg, Germany). Cell proliferation was calculated by comparing the OD values of the DMSO control wells with those of the samples, represented as % proliferation relative to the control.

hCA IX [7] = assay: Stopped-flow CO2 hydrase inhibition assay, hCA IX; type: biochemical, human; conditions: ratio of KIs
Experimental: (§3) An Applied Photophysics stopped-flow instrument (Applied Photophysics Ltd, Leatherhead, UK) was used for assaying the CA-catalyzed CO2 hydration activity. Phenol red (at a concentration of 0.2 mM) was used as an indicator, working at the absorbance maximum of 557 nm, with 20 mM Hepes (pH 7.5) as a buffer and 20 mM Na2SO4 for maintaining constant the ionic strength, following the initial rates of the CA-catalyzed CO2 hydration reaction for a period of 10−100 s. The CO2 concentrations ranged from 1.7 to 17 mM for the determination of the kinetic parameters and inhibition constants. For each inhibitor, at least six traces of the initial 5−10% of the reaction were used for determining the initial velocity. The uncatalyzed rates were determined in the same manner and subtracted from the total observed rates. Stock solutions of inhibitor (0.1 mM) were prepared in distilled−deionized water and dilutions up to 0.01 nM were made thereafter with the assay buffer. Inhibitor and enzyme solutions were preincubated together for 15 min at room temperature before the assay to allow for the formation of the E−I complex. The inhibition constants were obtained by nonlinear least-squares methods using Prism 7 (GraphPad Software, La Jolla, CA, USA) and the Cheng−Prusoff equation and represent the mean of at least three different determinations. The enzyme concentrations were in the range of 3–11 nM. All hCA isoforms were recombinant ones obtained in-house.

hCA IV [8] = assay: Stopped-flow CO2 hydrase inhibition assay, hCA IV; type: biochemical, human; conditions: ratio of KIs
Experimental: as §3

A549 [9] = assay: Annexin V-FITC/PI dual staining apoptosis assay, A549; type: cell-based, human
Experimental: (§4) Phosphatidylserine externalization was evaluated using the Annexin V-FITC/PI apoptosis detection kit (BD Biosciences, USA), following the manufacturer’s guidelines. […] Subsequently, the cells were re-suspended in 100 μL of binding buffer with the addition of 1 μL of FITC-Annexin V, followed by a 30-min incubation at 4 °C. After rinsing in binding buffer, the cells were resuspended in 150 μL of binding buffer with the addition of 1 μL of DAPI (1 μg/μL in PBS). Flow cytometry analysis was performed using the BD FACS Canto II flow cytometer and the results were interpreted with FlowJo7.6.4 software (Tree Star, Ashland, USA).

MDA-MB-231 = assay: MTT antiproliferative assay, MDA-MB-231; type: cell-based; conditions: Homo sapiens, normoxic conditions, 72 h
Experimental: as §2

HCT-116 [10] = assay: Annexin V-FITC/PI dual staining apoptosis assay, HCT-116; type: cell-based, human
Experimental: as §4

[11] = compound 150 µM, rat liver homogenate, 37 °C; cited from earlier work
[12] = A549, treated at IC50 concentration
[13] = HCT-116, treated at IC50 concentration

Which Ki (hCA IX [1]) does the source give for `NS(=O)(=O)c1ccc(CCN(Cc2ccc(Cl)cc2)C(=O)c2ccc(-c3cssc3=S)cc2)cc1` [Compound 21] here?
Its Ki is 24 nM.

And the Ki (hCA I)?
Its Ki is 5500 nM.

And the Ki (hCA IV [2])?
The Ki was 430 nM.

What about the Ki (hCA II) of the same compound?
The Ki was 2970 nM.

And the Ki (hCA XII)?
The Ki was 9.8 nM.

With `COc1ccc(CN(CCc2ccc(S(N)(=O)=O)cc2)C(=O)c2ccc(-c3cssc3=S)cc2)cc1OC` [Compound 28] as the compound, how does the Ki (hCA IX [1]) read?
The Ki was 18.6 nM.

What about the Ki (hCA I) of the same compound?
Its Ki is 890 nM.

And the Ki (hCA IV [2])?
Its Ki is 293 nM.

What about the Ki (hCA II) of the same compound?
Its Ki is 218 nM.

What about the Ki (hCA XII) of the same compound?
Its Ki is 8.9 nM.

With `COc1ccc(CN(CCc2ccc(S(N)(=O)=O)cc2)C(=O)c2ccc(-c3cssc3=S)cc2)cc1` [Compound 27] as the compound, how does the Ki (hCA IX [1]) read?
Its Ki is 50.3 nM.

And the Ki (hCA I)?
The Ki was 2220 nM.

What about the Ki (hCA IV [2]) of the same compound?
The Ki was 1590 nM.

And the Ki (hCA II)?
Its Ki is 589 nM.

What about the Ki (hCA XII) of the same compound?
Its Ki is 76.4 nM.

Which Ki (hCA IX [1]) does the source give for `NS(=O)(=O)c1ccc(CCN(Cc2csc3ccccc23)C(=O)c2ccc(-c3cssc3=S)cc2)cc1` [Compound 31] here?
The Ki was 2.4 nM.

And the Ki (hCA I)?
The Ki was > 10000 nM.

And the Ki (hCA II)?
Its Ki is 2480 nM.

And the Ki (hCA XII)?
Its Ki is 8 nM.

Which Ki (hCA IX [1]) does the source give for `NS(=O)(=O)c1ccc(CCN(CCc2ccccc2)C(=O)c2ccc(-c3cssc3=S)cc2)cc1` [Compound 32] here?
The Ki was 126 nM.

And the Ki (hCA I)?
Its Ki is 4390 nM.

What about the Ki (hCA IV [2]) of the same compound?
Its Ki is 243 nM.

What about the Ki (hCA II) of the same compound?
The Ki was 661 nM.

And the Ki (hCA XII)?
The Ki was 9.6 nM.

For `N#CCCN(CCc1ccc(S(N)(=O)=O)cc1)C(=O)c1ccc(-c2cssc2=S)cc1` [Compound 33], which Ki (hCA IX [1]) is on record?
The Ki was 28.7 nM.

What about the Ki (hCA I) of the same compound?
Its Ki is 429 nM.

What about the Ki (hCA IV [2]) of the same compound?
Its Ki is 523 nM.

And the Ki (hCA II)?
Its Ki is 60.4 nM.

What about the Ki (hCA XII) of the same compound?
Its Ki is 9.1 nM.

What does the source list for `NS(=O)(=O)c1ccc(CCN(Cc2cccc3ccccc23)C(=O)c2ccc(-c3cssc3=S)cc2)cc1` [Compound 30]?
%G0-G1 (HCT-116 [3]): 28.22%; %G2/M (HCT-116 [3]): 31.39%; %S (HCT-116 [3]): 18.4%; %Sub-G1 (HCT-116 [3]): 21.99%; %G0-G1 (A549 [4]): 22.93%; %G2/M (A549 [4]): 34.96%; %S (A549 [4]): 20.77%; %Sub-G1 (A549 [4]): 21.34%; IC50 Normoxia / IC50 Hypoxia (HCT-116 [5]; HCT-116): 2.5; Increase in cytotoxicity under hypoxia compared to normoxia (HCT-116 [5]; HCT-116, chemically induced hypoxia): 2 fold; Increase in activity concerning Staurosporine (HCT-116 [5]; HCT-116, hypoxic conditions): 10 fold; Increase in activity concerning Staurosporine (HCT-116 [5]; HCT-116, normoxic conditions): 5 fold; IC50 (HCT-116 [5]; HCT-116, chemically induced hypoxia with CoCl2·6H2O, read-out: IC50 HCT-116 (Hypoxia)): 930 ± 20 nM; IC50 (HCT-116 [5]; HCT-116, normoxic conditions, read-out: IC50 HCT-116 (Normoxia)): 2300 ± 140 nM; IC50 (A549 [6]): 1780 ± 40 nM; hCA II/hCA IX selectivity ratio (hCA IX [7]): 286; Ki (hCA I): > 10000 nM; Ki (hCA IV [2]): 244 nM; Ki (hCA II): 4460 nM; hCA II/hCA IV selectivity ratio (hCA IV [8]): 18.3; Ki (hCA XII): 7 nM; Fold increase in overall apoptosis compared to untreated control (A549 [9]; A549): 19.9 fold; Early Apoptosis (Lower Right %) (A549 [9]; [12]): 5.36%; Late Apoptosis (Upper Right %) (A549 [9]; [12]): 18.59%; Total apoptosis (A549 [9]; [12]): 23.95%; IC50 (MDA-MB-231): 9590 ± 310 nM; Fold increase in overall apoptosis compared to untreated control (HCT-116 [10]; HCT-116): 32.9 fold; Early Apoptosis (Lower Right %) (HCT-116 [10]; [13]): 10.23%; Late Apoptosis (Upper Right %) (HCT-116 [10]; [13]): 15.49%; Total apoptosis (HCT-116 [10]; [13]): 25.72%; H2S release half-life t/2 [11]: 5.0 min

Reference: publication PMC11432087, “Hydrogen Sulfide-Releasing Carbonic Anhydrase Inhibitors Effectively Suppress Cancer Cell Growth” (International Journal of Molecular Sciences, 2024)
